In patent US4971965A, “Antibiotics TAN-1057” (Takeda Chemical Industries, Ltd., priority 1988, dated 1990):
Values after ≈ are worked out from the molar mass of the structure shown. Like-named read-outs stand apart in the source and are kept apart here.

Tests used:
[1] = system: Acinetobacter calcoaceticus IFO 12552; test: Antibacterial activity (broth dilution MIC, Table 1); assay type: cell-based
Experimental: (§1) The biological activities of TAN-1057 are described as follows.
(§2) (Note 1) Measurement was conducted by employing a medium consisting of
(§3) Bacto Antibiotic Medium 3 (Difco Laboratories, USA)(17.5 g), Bacto yeast
(§4) extract(Difco Laboratories, USA)(5.0 g) and distilled water(pH
(§5) […])(1000 ml), using approximately 10^5 colony forming unit/ml
(§6) of inoculum, by means of the broth dilution method.

Bacillus cereus FDA 5 [2] = test: as above; assay type: cell-based
Experimental: as §1, §2, §3, §4, §5, §6

[3] = system: Bacillus megaterium IFO 12108; test: as above; assay type: cell-based; details: Priestia megaterium
Experimental: as §1, §2, §3, §4, §5, §6

Escherichia coli LD-2 = test: as above; assay type: cell-based
Experimental: as §1, §2, §3, §4, §5, §6

[4] = system: Bacillus subtilis NIHJ PCI 219; test: as above; assay type: cell-based
Experimental: as §1, §2, §3, §4, §5, §6

[5] = system: Escherichia coli NIHJ JC 2; test: as above; assay type: cell-based
Experimental: as §1, §2, §3, §4, §5, §6

[6] = system: Pseudomonas aeruginosa IFO 3080; test: as above; assay type: cell-based
Experimental: as §1, §2, §3, §4, §5, §6

[7] = system: Staphylococcus aureus FDA 209P; test: as above; assay type: cell-based; details: FDA209P
Experimental: as §1, §2, §3, §4, §5, §6

[8] = system: Micrococcus luteus IFO 12708; test: as above; assay type: cell-based
Experimental: as §1, §2, §3, §4, §5, §6

[9] = system: Proteus vulgaris IFO 3988; test: as above; assay type: cell-based
Experimental: as §1, §2, §3, §4, §5, §6

[10] = system: Salmonella typhimurium IFO 12529; test: as above; assay type: cell-based; details: Salmonella enterica
Experimental: as §1, §2, §3, §4, §5, §6

[11] = system: Pseudomonas aeruginosa PAO-8; test: as above; assay type: cell-based
Experimental: as §1, §2, §3, §4, §5, §6

[12] = system: Acinetobacter calcoaceticus IFO 13006; test: as above; assay type: cell-based
Experimental: as §1, §2, §3, §4, §5, §6

Aeromonas caviae NCW = test: as above; assay type: cell-based
Experimental: as §1, §2, §3, §4, §5, §6

[13] = system: Klebsiella pnemoniae IFO 3317; test: as above; assay type: cell-based
Experimental: as §1, §2, §3, §4, §5, §6

[14] = system: Streptococcus faecalis IFO 3989; test: as above; assay type: cell-based; details: Enterococcus faecalis
Experimental: as §1, §2, §3, §4, §5, §6

[15] = system: Staphylococcus epidermidis IFO 3762; test: as above; assay type: cell-based
Experimental: as §1, §2, §3, §4, §5, §6

[16] = system: Treponema hyodicenterie DJ70PI; test: MIC against Spirochaeta (Table 3); details: 48 h
[17] = system: Peptostreptococcus anaerobium B-40; test: MIC against anaerobic bacteria (Table 3); assay type: cell-based; details: B40, 10^6 CFU/ml, GAM medium, Gas Pack, 37° C., 18 hours
[18] = Acute toxicity in mice (Table 7); details: mouse, in vivo
[19] = system: Acinetobacter calcoaceticus IFO 12552; assay type: cell-based; details: IFO12552, agar dilution, DY medium, pH unadjusted, approx. 10^6 CFU/ml, read-out: Minimum Inhibitory Conc. (MIC)
Experimental: (§7) (Note 1) Measurement was conducted by employing a medium consisting of DY
(§8) medium [Bacto Antibiotic Medium 3 (Difco Laboratories, USA)(17.5 g), Bact
(§9) yeast extract(Difco Laboratories, USA)(5.0 g) and distilled water(pH
(§10) unadjusted)(1000 ml)], using approximately 10^6 colony forming unit/m
(§11) of inoculum, by means of the agar dilution method.

Bacillus cereus FDA 5 [20] = assay type: cell-based; details: FDA5, agar dilution, DY medium, pH unadjusted, approx. 10^6 CFU/ml, read-out: Minimum Inhibitory Conc. (MIC)
Experimental: as §7, §8, §9, §10, §11

[21] = system: Bacillus subtilis NIHJ PCI 219; assay type: cell-based; details: read-out: Minimum Inhibitory Conc. (MIC)
Experimental: as §7, §8, §9, §10, §11

[22] = system: Staphylococcus aureus FDA 209P; assay type: cell-based; details: FDA209P, read-out: Minimum Inhibitory Conc. (MIC)
Experimental: as §7, §8, §9, §10, §11

[23] = system: Mycoplasma garisepticum S6; test: MIC against Mycoplasma (Table 3); assay type: cell-based; details: S6, 120 h, 10^6 CFU/ml, Hayflick medium, 37° C., 5 days
From the text: | Inoculum size: 10^6 CFU/ml

[24] = pH 5, broth dilution, read-out: Minimum Inhibitory Conc. (MIC)
[25] = pH 7, read-out: Minimum Inhibitory Conc. (MIC)
[26] = pH 9, broth dilution, read-out: Minimum Inhibitory Conc. (MIC)

CN(C(=O)C[C@@H](N)CCCNC(=N)N)[C@H]1CNC(NC(N)=O)=NC1=O [TAN-1057A]
MIC ([1]; IFO12552, pH 5, read-out: Minimum Inhibitory Conc. (MIC)): 12.5 mg/L (≈ 35.2 µM)
MIC ([1]; IFO12552, pH 7, read-out: Minimum Inhibitory Conc. (MIC)): 6.25 mg/L (≈ 17.6 µM)
MIC ([1]; IFO12552, pH 9, broth dilution, read-out: Minimum Inhibitory Conc. (MIC)): 1.56 mg/L (≈ 4.39 µM)
MIC (Bacillus cereus FDA 5 [2]; FDA5, pH 5, read-out: Minimum Inhibitory Conc. (MIC)): 6.25 mg/L (≈ 17.6 µM)
MIC (Bacillus cereus FDA 5 [2]; FDA5, pH 7, broth dilution, read-out: Minimum Inhibitory Conc. (MIC)): 25 mg/L (≈ 70.3 µM)
MIC (Bacillus cereus FDA 5 [2]; FDA5, pH 9, read-out: Minimum Inhibitory Conc. (MIC)): 3.13 mg/L (≈ 8.81 µM)
MIC ([3]; IFO12108, pH 7, read-out: Minimum Inhibitory Conc. (MIC)): 12.5 mg/L (≈ 35.2 µM)
MIC ([3]; IFO12108, pH 5, broth dilution, read-out: Minimum Inhibitory Conc. (MIC)): 25 mg/L (≈ 70.3 µM)
MIC ([3]; IFO12108, pH 9, broth dilution, read-out: Minimum Inhibitory Conc. (MIC)): 1.56 mg/L (≈ 4.39 µM)
MIC (Escherichia coli LD-2; LD2, pH 5, read-out: Minimum Inhibitory Conc. (MIC)): 100 mg/L (≈ 281 µM)
MIC (Escherichia coli LD-2; LD2, pH 7, read-out: Minimum Inhibitory Conc. (MIC)): 25 mg/L (≈ 70.3 µM)
MIC (Escherichia coli LD-2; LD2, pH 9, read-out: Minimum Inhibitory Conc. (MIC)): 1.56 mg/L (≈ 4.39 µM)
MIC [4, 24]: 50 mg/L (≈ 141 µM)
MIC [4, 25]: 12.5 mg/L (≈ 35.2 µM)
MIC [4, 26]: 1.56 mg/L (≈ 4.39 µM)
MIC ([5]; NIHJJC2, pH 5, read-out: Minimum Inhibitory Conc. (MIC)): > 100 mg/L
MIC ([5]; NIHJJC2, pH 7, read-out: Minimum Inhibitory Conc. (MIC)): > 100 mg/L
MIC ([5]; NIHJJC2, pH 9, read-out: Minimum Inhibitory Conc. (MIC)): 25 mg/L (≈ 70.3 µM)
MIC ([6]; IFO3080, pH 5, read-out: Minimum Inhibitory Conc. (MIC)): > 100 mg/L
MIC ([6]; IFO3080, pH 7, read-out: Minimum Inhibitory Conc. (MIC)): > 100 mg/L
MIC ([6]; IFO3080, pH 9, read-out: Minimum Inhibitory Conc. (MIC)): 100 mg/L (≈ 281 µM)
MIC [7, 25]: 3.13 mg/L (≈ 8.81 µM)
MIC [7, 26]: < 0.1 mg/L
MIC ([8]; IFO12708, pH 7, read-out: Minimum Inhibitory Conc. (MIC)): 1.56 mg/L (≈ 4.39 µM)
MIC ([8]; IFO12708, pH 9, read-out: Minimum Inhibitory Conc. (MIC)): 0.2 mg/L (≈ 0.563 µM)
MIC ([9]; IFO3988, pH 5, read-out: Minimum Inhibitory Conc. (MIC)): > 100 mg/L
MIC ([9]; IFO3988, pH 7, read-out: Minimum Inhibitory Conc. (MIC)): > 100 mg/L
MIC ([9]; IFO3988, pH 9, read-out: Minimum Inhibitory Conc. (MIC)): 50 mg/L (≈ 141 µM)
MIC ([10]; pH 5, read-out: Minimum Inhibitory Conc. (MIC)): > 100 mg/L
MIC [10, 25]: > 100 mg/L
MIC ([10]; pH 9, read-out: Minimum Inhibitory Conc. (MIC)): 25 mg/L (≈ 70.3 µM)
MIC ([11]; PAO8, pH 5, read-out: Minimum Inhibitory Conc. (MIC)): 100 mg/L (≈ 281 µM)
MIC ([11]; PAO8, pH 7, read-out: Minimum Inhibitory Conc. (MIC)): > 100 mg/L
MIC ([11]; PAO8, pH 9, read-out: Minimum Inhibitory Conc. (MIC)): 100 mg/L (≈ 281 µM)
MIC ([12]; IFO13006, pH 5, broth dilution, read-out: Minimum Inhibitory Conc. (MIC)): 1.56 mg/L (≈ 4.39 µM)
MIC ([12]; IFO13006, pH 7, read-out: Minimum Inhibitory Conc. (MIC)): 6.25 mg/L (≈ 17.6 µM)
MIC ([12]; IFO13006, pH 9, broth dilution, read-out: Minimum Inhibitory Conc. (MIC)): 1.56 mg/L (≈ 4.39 µM)
MIC (Aeromonas caviae NCW; [24]): 100 mg/L (≈ 281 µM)
MIC (Aeromonas caviae NCW; [25]): 6.25 mg/L (≈ 17.6 µM)
MIC (Aeromonas caviae NCW; [26]): 1.56 mg/L (≈ 4.39 µM)
MIC ([13]; IFO3317, pH 5, read-out: Minimum Inhibitory Conc. (MIC)): > 100 mg/L
MIC ([13]; IFO3317, pH 7, read-out: Minimum Inhibitory Conc. (MIC)): > 100 mg/L
MIC ([13]; IFO3317, pH 9, read-out: Minimum Inhibitory Conc. (MIC)): 100 mg/L (≈ 281 µM)
MIC ([14]; IFO3989, pH 7, read-out: Minimum Inhibitory Conc. (MIC)): 12.5 mg/L (≈ 35.2 µM)
MIC ([14]; IFO3989, pH 9, read-out: Minimum Inhibitory Conc. (MIC)): 3.13 mg/L (≈ 8.81 µM)
MIC ([14]; IFO3989, pH 5, broth dilution, read-out: Minimum Inhibitory Conc. (MIC)): > 100 mg/L
MIC ([15]; IFO3762, pH 5, read-out: Minimum Inhibitory Conc. (MIC)): > 100 mg/L
MIC ([15]; IFO3762, pH 7, read-out: Minimum Inhibitory Conc. (MIC)): 1.56 mg/L (≈ 4.39 µM)
MIC ([15]; IFO3762, pH 9, read-out: Minimum Inhibitory Conc. (MIC)): < 0.1 mg/L
MIC [16]: 100 mg/L (≈ 281 µM)
MIC [17]: 25 mg/L (≈ 70.3 µM)
LD50 ([18]; Oral): > 400 mg/kg
LD50 ([18]; ip, Intraperitoneal): ~100 mg/kg
MIC [19]: 50 mg/L (≈ 141 µM)
MIC (Bacillus cereus FDA 5 [20]): 25 mg/L (≈ 70.3 µM)
MIC [21]: 12.5 mg/L (≈ 35.2 µM)
MIC [22]: 6.25 mg/L (≈ 17.6 µM)
MIC [23]: 3.13 mg/L (≈ 8.81 µM)
